Source: US7074789B2, “Kinase inhibitors” (Amgen Inc., priority 1999, dated 2006)

Columns and labels:
Format in all cases: biochemical
c-Met = molecular target: T1, c-Met (Homo sapiens, UniProt P08581); assay: Kinase inhibition assay (33P transfer), c-Met; conditions: Table 2, kinase inhibition class; read-out: Met-1
T1 construct: Kinases are expressed as either kinase domains or full length constructs; made in house
Method in brief: (§1)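 Radiometric format: recombinant tagged kinase (catalytic domain or whole protein, sometimes combined with regulatory polypeptides) phosphorylates immobilised poly(Glu,Tyr) 4:1 or poly(Arg,Ser) 3:1 using [33P]ATP. Wells are washed in 0.5% phosphoric acid, then counted. IC50 is taken where substrate labelling falls by half.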

Itk = molecular target: T2, Itk (Homo sapiens, UniProt Q08881); assay: Kinase inhibition assay (33P transfer), Itk; conditions: read-out: Itk-1
T2 construct: Kinases are expressed as either kinase domains or full length constructs; made in house
T2 sequence (Q08881 1-620): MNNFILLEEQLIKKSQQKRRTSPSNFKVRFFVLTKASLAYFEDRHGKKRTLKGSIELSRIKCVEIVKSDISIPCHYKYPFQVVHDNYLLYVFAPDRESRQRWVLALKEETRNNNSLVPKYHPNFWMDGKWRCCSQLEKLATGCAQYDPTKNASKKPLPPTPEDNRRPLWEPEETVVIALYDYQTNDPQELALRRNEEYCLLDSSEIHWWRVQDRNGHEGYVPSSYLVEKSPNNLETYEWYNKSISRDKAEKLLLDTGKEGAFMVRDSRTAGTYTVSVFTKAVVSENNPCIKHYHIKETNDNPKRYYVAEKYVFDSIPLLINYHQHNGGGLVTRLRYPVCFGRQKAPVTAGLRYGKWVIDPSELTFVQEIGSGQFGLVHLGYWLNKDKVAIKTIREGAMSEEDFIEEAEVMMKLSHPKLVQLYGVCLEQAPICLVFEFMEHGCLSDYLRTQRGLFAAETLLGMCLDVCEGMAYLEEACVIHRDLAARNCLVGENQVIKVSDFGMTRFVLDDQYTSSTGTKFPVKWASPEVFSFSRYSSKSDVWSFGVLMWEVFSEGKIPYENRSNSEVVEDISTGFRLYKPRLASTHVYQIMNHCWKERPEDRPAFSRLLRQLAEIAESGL
Method in brief: as §1

Kdr = molecular target: T3, Kdr (Homo sapiens, UniProt P35968); assay: Kinase inhibition assay (33P transfer), Kdr; conditions: read-out: KDR-1
T3 construct: Kinases are expressed as either kinase domains or full length constructs; made in house
Method in brief: (§2)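 33P-ATP transfer to coated synthetic polymer substrates; acid wash (0.5% H3PO4), scintillant, liquid scintillation count. Enzymes: His- or GST-fusion kinases from E. coli or High Five insect cells.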

ErbB2 = molecular target: T4, ErbB2 (Homo sapiens, UniProt P04626); assay: Kinase inhibition assay (33P transfer), ErbB2; conditions: read-out: ErbB2-2
T4 construct: Kinases are expressed as either kinase domains or full length constructs; made in house
Source text: The inhibitor compounds described herein are screened in the following manner. Kinases suitable for use in the following protocol to determine kinase activity of the compounds described herein include, -but are not limited to: Lck, Lyn, Src, Fyn, Syk, Zap-70, Itk, Tec, Btk, EGFR, ErbB2, Kdr, Flt-1, Flt-3, Tek, c-Met, InsR, and AKT.
Kinases are expressed as either kinase domains or full length constructs fused to glutathione S-transferase (GST) or polyHistidine tagged fusion proteins in either E. colior Baculovirus-High Five expression systems. They are purified to near homogeneity by affinity chromatography essentially as previously described (Lehr et al., 1996; Gish et al., 1995). In some instances, kinases are co-expressed or mixed with purified or partially purified regulatory polypeptides prior to measurement of activity.
Kinase activity and inhibition are measured essentially by established protocols (Braunwalder et al., 1996). Briefly, The transfer of ^33PO4 from ATP to the synthetic substrates poly(Glu, Tyr) 4:1 or poly(Arg, Ser) 3:1 attached to the bioactive surface of microtiter plates serves as the basis to evaluate enzyme activity. After an incubation period, the amount of phosphate transferred is measured by first washing the plate with 0.5% phosphoric acid, adding liquid scintillant, and then counting in a liquid scintillation detector. The IC50 is determined by the concentration of compound that causes a 50% reduction in the amount of […] incorporated onto the substrate bound to the plate.

Tek = molecular target: T5, Tek (Homo sapiens, UniProt Q02763); assay: Kinase inhibition assay (33P transfer), Tek; conditions: read-out: Tek-1
T5 construct: Kinases are expressed as either kinase domains or full length constructs; made in house
Method in brief: as §1

Zap-70 = molecular target: T6, Zap-70 (Homo sapiens, UniProt P43403); assay: Kinase inhibition assay (33P transfer), Zap-70; conditions: read-out: Zap-1
T6 construct: Kinases are expressed as either kinase domains or full length constructs; made in house
T6 sequence (P43403 1-619): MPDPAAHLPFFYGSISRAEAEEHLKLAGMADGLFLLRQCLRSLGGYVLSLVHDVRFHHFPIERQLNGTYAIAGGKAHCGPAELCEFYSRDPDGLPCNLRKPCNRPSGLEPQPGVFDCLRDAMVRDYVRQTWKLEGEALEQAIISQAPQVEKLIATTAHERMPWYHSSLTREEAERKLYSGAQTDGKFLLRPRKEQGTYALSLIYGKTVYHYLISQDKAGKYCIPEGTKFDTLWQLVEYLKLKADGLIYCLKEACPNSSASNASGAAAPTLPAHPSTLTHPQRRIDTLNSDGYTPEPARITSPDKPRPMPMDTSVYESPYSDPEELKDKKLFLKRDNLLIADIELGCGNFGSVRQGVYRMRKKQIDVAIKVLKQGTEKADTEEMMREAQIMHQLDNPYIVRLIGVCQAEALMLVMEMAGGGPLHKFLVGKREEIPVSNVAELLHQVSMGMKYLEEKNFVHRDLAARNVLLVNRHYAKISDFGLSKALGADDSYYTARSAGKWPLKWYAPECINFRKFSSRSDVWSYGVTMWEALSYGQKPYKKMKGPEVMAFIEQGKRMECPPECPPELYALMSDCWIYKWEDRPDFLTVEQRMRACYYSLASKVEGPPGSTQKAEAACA
Method in brief: as §2

EGFR = molecular target: T7, EGFR (Homo sapiens, UniProt P00533); assay: Kinase inhibition assay (33P transfer), EGFR; conditions: Table 2, kinase inhibition class; read-out: EGFR-1
T7 construct: Kinases are expressed as either kinase domains or full length constructs; made in house
Method in brief: as §1

IGFR-1 = molecular target: T8, IGFR-1 (Homo sapiens, UniProt P08069); assay: Kinase inhibition assay, IGFR-1 (Table 2); conditions: Table 2, kinase inhibition class
T8 construct: Kinases are expressed as either kinase domains or full length constructs; made in house

Lck = molecular target: T9, Lck (Homo sapiens, UniProt P06239); assay: Kinase inhibition assay (33P transfer), Lck; conditions: read-out: Lck-1
T9 construct: Kinases are expressed as either kinase domains or full length constructs; made in house
Method in brief: as §2

AKT = molecular target: T10, AKT (Homo sapiens, UniProt Q9Y243); assay: Kinase inhibition assay (33P transfer), AKT; conditions: Table 2, kinase inhibition class; read-out: AKT3-1
T10 construct: Kinases are expressed as either kinase domains or full length constructs; made in house
Method in brief: as §2

PDGFRB = molecular target: T11, PDGFRB (Homo sapiens, UniProt P09619); assay: Kinase inhibition assay (33P transfer), PDGFRB; conditions: read-out: PDGFRB-1
T11 construct: Kinases are expressed as either kinase domains or full length constructs; made in house
T11 sequence (P09619 33-1106, species assumed): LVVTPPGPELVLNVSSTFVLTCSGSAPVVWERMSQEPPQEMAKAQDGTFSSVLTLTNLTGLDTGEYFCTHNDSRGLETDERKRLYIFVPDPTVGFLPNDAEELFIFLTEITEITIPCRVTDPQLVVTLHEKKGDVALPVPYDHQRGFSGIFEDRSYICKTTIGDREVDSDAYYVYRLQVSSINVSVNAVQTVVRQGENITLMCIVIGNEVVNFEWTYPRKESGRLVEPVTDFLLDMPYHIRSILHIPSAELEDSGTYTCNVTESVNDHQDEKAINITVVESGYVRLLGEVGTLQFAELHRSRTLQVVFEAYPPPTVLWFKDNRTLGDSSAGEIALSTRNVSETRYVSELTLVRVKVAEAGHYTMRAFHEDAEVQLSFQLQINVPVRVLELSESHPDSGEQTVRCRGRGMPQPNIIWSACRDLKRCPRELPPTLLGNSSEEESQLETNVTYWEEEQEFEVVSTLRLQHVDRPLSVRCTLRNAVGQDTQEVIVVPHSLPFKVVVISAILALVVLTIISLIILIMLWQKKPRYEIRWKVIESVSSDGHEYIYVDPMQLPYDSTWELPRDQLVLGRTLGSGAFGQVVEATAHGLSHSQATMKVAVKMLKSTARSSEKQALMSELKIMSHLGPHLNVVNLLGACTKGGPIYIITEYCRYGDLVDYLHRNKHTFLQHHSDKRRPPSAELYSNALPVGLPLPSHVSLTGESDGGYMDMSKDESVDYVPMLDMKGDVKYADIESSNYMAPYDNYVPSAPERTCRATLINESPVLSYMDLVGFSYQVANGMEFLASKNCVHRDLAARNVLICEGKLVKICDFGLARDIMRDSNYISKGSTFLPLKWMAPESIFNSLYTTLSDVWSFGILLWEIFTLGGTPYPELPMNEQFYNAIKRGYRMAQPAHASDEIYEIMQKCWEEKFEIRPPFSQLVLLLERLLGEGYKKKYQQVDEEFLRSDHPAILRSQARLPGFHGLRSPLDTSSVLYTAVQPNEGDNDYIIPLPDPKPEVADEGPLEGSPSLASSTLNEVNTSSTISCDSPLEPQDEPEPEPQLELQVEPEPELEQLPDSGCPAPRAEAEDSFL

T8 sequence (P08069 31-1367): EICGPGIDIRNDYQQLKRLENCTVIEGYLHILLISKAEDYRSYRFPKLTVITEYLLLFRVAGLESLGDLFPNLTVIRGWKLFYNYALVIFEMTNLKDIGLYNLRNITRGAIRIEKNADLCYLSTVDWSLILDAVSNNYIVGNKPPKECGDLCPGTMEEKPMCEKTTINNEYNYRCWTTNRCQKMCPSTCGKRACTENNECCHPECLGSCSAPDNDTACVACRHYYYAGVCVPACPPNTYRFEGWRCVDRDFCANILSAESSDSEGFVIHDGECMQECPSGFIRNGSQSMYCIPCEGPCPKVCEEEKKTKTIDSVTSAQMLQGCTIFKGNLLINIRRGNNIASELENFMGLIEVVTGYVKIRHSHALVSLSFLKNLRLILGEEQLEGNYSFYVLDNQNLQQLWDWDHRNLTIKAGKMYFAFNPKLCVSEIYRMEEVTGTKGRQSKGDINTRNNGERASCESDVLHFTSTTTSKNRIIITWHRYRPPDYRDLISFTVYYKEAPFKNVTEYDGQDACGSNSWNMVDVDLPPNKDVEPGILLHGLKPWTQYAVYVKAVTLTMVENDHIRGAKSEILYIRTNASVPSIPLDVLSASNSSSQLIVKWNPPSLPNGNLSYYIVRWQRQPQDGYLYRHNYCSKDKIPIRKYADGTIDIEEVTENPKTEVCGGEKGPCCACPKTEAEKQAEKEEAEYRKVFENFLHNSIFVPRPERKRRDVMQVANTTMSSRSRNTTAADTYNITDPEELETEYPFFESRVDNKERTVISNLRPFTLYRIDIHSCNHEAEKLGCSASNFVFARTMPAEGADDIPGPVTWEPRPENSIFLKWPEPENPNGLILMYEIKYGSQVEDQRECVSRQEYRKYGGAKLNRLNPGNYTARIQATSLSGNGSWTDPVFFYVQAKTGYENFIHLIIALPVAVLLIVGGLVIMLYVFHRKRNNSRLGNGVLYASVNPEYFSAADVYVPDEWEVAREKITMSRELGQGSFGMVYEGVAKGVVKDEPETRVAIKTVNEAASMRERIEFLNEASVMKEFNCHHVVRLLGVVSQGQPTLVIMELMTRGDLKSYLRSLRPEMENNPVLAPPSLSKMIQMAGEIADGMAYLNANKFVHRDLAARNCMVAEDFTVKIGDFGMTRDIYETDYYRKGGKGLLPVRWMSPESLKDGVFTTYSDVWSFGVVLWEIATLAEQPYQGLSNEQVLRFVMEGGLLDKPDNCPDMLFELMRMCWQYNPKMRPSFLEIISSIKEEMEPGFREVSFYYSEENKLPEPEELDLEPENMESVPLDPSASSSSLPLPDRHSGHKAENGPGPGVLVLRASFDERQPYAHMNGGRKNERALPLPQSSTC
T7 sequence (P00533 25-1210, species assumed): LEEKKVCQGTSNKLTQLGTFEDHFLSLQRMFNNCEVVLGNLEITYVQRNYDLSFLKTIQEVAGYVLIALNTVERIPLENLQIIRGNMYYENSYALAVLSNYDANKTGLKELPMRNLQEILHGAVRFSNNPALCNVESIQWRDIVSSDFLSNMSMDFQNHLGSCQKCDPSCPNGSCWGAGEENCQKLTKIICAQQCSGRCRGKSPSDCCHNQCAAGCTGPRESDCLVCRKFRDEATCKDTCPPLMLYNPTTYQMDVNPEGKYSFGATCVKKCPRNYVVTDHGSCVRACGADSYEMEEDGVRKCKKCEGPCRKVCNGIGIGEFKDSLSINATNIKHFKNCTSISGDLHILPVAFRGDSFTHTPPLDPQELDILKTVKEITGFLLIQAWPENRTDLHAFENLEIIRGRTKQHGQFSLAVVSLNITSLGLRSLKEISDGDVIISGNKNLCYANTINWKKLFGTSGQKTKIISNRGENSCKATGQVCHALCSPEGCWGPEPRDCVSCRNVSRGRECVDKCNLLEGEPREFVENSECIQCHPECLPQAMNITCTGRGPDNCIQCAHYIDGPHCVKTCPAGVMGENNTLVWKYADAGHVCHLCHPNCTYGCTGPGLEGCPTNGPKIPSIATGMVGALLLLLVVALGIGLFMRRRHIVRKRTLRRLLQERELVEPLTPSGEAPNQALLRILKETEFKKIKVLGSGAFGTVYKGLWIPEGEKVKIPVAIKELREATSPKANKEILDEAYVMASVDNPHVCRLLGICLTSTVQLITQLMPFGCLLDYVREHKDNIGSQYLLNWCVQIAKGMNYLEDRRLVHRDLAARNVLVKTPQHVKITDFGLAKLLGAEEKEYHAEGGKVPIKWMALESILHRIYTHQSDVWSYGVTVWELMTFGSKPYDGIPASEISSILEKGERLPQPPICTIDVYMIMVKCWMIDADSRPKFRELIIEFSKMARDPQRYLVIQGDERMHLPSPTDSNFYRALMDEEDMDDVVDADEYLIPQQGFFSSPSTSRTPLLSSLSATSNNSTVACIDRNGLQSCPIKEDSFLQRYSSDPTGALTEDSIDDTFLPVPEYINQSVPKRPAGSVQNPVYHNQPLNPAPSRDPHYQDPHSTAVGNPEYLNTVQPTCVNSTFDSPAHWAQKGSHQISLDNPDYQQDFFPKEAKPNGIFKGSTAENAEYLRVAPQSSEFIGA
T5 sequence (Q02763 23-1124, species assumed): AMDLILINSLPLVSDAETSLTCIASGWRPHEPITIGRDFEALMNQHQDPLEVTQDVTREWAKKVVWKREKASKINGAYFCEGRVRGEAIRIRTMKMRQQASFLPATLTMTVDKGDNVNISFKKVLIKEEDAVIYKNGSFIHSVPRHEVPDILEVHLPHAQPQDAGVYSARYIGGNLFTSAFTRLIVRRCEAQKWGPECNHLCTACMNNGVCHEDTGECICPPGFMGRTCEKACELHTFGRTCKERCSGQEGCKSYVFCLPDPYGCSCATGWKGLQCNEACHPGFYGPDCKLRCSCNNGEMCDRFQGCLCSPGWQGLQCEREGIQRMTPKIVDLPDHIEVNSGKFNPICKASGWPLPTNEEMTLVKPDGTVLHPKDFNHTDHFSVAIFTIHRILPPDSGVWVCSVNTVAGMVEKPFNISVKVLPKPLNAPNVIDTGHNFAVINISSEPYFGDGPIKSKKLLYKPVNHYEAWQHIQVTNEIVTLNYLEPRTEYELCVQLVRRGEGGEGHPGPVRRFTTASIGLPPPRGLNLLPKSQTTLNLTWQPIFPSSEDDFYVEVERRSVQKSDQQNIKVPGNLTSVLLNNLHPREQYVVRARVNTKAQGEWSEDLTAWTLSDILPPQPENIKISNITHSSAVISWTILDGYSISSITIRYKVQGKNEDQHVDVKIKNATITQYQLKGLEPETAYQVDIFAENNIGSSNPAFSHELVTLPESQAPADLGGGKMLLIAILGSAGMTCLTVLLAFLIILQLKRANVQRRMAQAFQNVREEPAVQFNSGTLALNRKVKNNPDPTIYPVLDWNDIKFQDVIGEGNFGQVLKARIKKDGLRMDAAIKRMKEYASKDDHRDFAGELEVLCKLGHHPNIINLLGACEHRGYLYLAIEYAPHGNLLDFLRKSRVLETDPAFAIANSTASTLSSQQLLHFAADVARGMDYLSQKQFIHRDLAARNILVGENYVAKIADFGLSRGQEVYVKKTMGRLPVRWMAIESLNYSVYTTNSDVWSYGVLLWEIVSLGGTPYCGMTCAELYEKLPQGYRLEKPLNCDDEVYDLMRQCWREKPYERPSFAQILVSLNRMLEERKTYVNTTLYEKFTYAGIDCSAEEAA

Structure (SMILES) | IC50 (c-Met) [µM] | IC50 (Itk) [µM] | IC50 (Kdr) [µM] | IC50 (ErbB2) [µM] | IC50 (Tek) [µM] | IC50 (Zap-70) [µM] | IC50 (EGFR) [µM] | IC50 (IGFR-1) [µM] | IC50 (Lck) [µM] | IC50 (AKT) [µM] | IC50 (PDGFRB) [µM]
NC(=O)c1ccccc1Nc1ncnc(-n2c(N)nc3ccccc32)n1 [Compound 473] | 10.1 to 13 | > 13 | 10.1 to 13 | 10.1 to 13 | > 13 | 10.1 to 13 | > 13 | 6.93 to 10.1 | 6.93 to 10.1 | > 13 | –
COC(=O)c1cc(OC)c(OC)cc1Nc1ncnc(-n2c(N)nc3ccccc32)n1 [Compound 476] | > 10.7 | > 10.7 | 8.31 to 10.7 | 5.7 to 8.31 | > 10.7 | > 10.7 | > 10.7 | 0.949 to 5.7 | > 10.7 | > 10.7 | –
O=C(O)Cc1cccc(Nc2ncnc(-n3c(NCc4ccccc4)nc4ccccc43)n2)c1 [Compound 531] | 7.75 to 9.97 | > 9.97 | < 0.886 | < 0.886 | – | > 9.97 | < 0.886 | > 9.97 | 0.886 to 5.32 | > 9.97 | < 0.886
COc1ccc(Nc2ncnc(N3CCCc4ccc(C(F)(F)F)cc43)n2)cc1OC [Compound 535] | 0.927 to 5.56 | > 10.4 | 0.927 to 5.56 | < 0.927 | – | > 10.4 | < 0.927 | > 10.4 | 0.927 to 5.56 | > 10.4 | 5.56 to 8.11
CCN(c1cccc(C)c1)c1ncnc(Nc2cc(OC)c(OC)c(OC)c2)n1 [Compound 537] | 1.01 to 6.07 | 8.85 to 11.4 | < 1.01 | 1.01 to 6.07 | – | > 11.4 | < 1.01 | 1.01 to 6.07 | < 1.01 | > 11.4 | 1.01 to 6.07
CCN(c1ccc(C)cc1)c1ncnc(Nc2cc(OC)c(OC)c(OC)c2)n1 [Compound 538] | < 1.01 | 8.85 to 11.4 | < 1.01 | 1.01 to 6.07 | – | > 11.4 | < 1.01 | < 1.01 | 1.01 to 6.07 | > 11.4 | 1.01 to 6.07
Brc1cccc(Nc2ncnc(Nc3cccc(Br)c3)n2)c1 [Compound 539] | 8.31 to 10.7 | 8.31 to 10.7 | 0.95 to 5.7 | 0.95 to 5.7 | – | 0.95 to 5.7 | < 0.95 | 5.7 to 8.31 | 8.31 to 10.7 | 8.31 to 10.7 | 8.31 to 10.7
COC(=O)Cc1cccc(Nc2ncnc(Nc3cccc(Br)c3)n2)c1 [Compound 540] | 5.79 to 8.45 | 8.45 to 10.9 | 5.79 to 8.45 | 0.966 to 5.79 | – | > 10.9 | < 0.966 | < 0.966 | 0.966 to 5.79 | > 10.9 | 8.45 to 10.9
COc1cc(Nc2ncnc(Nc3cc(-c4cccc(C(F)(F)F)c4)n[nH]3)n2)cc(OC)c1OC [Compound 1000] | 4.92 to 7.18 | > 9.23 | 0.821 to 4.92 | 4.92 to 7.18 | > 9.23 | > 9.23 | 4.92 to 7.18 | 0.821 to 4.92 | 0.821 to 4.92 | 7.18 to 9.23 | –

Now from value to compound:

IC50 (c-Met) [µM] | IC50 (Itk) [µM] | IC50 (Kdr) [µM] | IC50 (ErbB2) [µM] | IC50 (Tek) [µM] | IC50 (Zap-70) [µM] | IC50 (EGFR) [µM] | IC50 (IGFR-1) [µM] | IC50 (Lck) [µM] | IC50 (AKT) [µM] | IC50 (PDGFRB) [µM] | Structure (SMILES)
< 0.923 | 0.923 to 5.54 | < 0.923 | 0.923 to 5.54 | > 10.4 | > 10.4 | 0.923 to 5.54 | < 0.923 | < 0.923 | > 10.4 | – | COc1cc(Nc2ncnc(Nc3cc(-c4ccc(C)cc4)n[nH]3)n2)cc(OC)c1OC [Compound 521]
6.36 to 9.27 | 9.27 to 11.9 | 1.06 to 6.36 | 6.36 to 9.27 | > 11.9 | > 11.9 | > 11.9 | < 1.06 | 6.36 to 9.27 | > 11.9 | – | COc1cc(C)c(Nc2ncnc(-n3c(N)nc4ccccc43)n2)cc1OC [Compound 524]
> 9.77 | > 9.77 | > 9.77 | > 9.77 | – | > 9.77 | > 9.77 | > 9.77 | > 9.77 | > 9.77 | > 9.77 | COc1cc(Nc2ncnc(Oc3ccc(OCc4ccccc4)cc3)n2)cc(OC)c1OC [Compound 530]
> 9.95 | > 9.95 | < 0.884 | > 9.95 | – | > 9.95 | > 9.95 | > 9.95 | > 9.95 | > 9.95 | 0.884 to 5.3 | O=C(O)Cc1cccc(Nc2ncnc(-n3c(NCc4ccccn4)nc4ccccc43)n2)c1 [Compound 533]
> 9.35 | > 9.35 | < 0.831 | > 9.35 | – | > 9.35 | > 9.35 | > 9.35 | 7.27 to 9.35 | > 9.35 | 0.831 to 4.98 | COc1ccc(CNc2nc3ccccc3n2-c2ncnc(Nc3cccc(CC(=O)O)c3)n2)cc1 [Compound 534]
< 1.05 | > 11.8 | < 1.05 | 1.05 to 6.29 | – | > 11.8 | < 1.05 | 1.05 to 6.29 | 1.05 to 6.29 | > 11.8 | 1.05 to 6.29 | CCN(c1ccccc1)c1ncnc(Nc2cc(OC)c(OC)c(OC)c2)n1 [Compound 536]
> 10.8 | > 10.8 | > 10.8 | – | – | > 10.8 | > 10.8 | 0.963 to 5.78 | 0.963 to 5.78 | > 10.8 | 5.78 to 8.42 | COc1ccc(Nc2ncnc(Nc3cccc(-c4ccnc(C)n4)c3)n2)cc1OC [Compound 789]
< 0.923 | 0.923 to 5.54 | 0.923 to 5.54 | 0.923 to 5.54 | > 10.4 | > 10.4 | 0.923 to 5.54 | < 0.923 | < 0.923 | > 10.4 | – | COc1cc(Nc2ncnc(Nc3cc(-c4cccc(C)c4)n[nH]3)n2)cc(OC)c1OC [Compound 1001]
